According to patent US7229785B2, “Fluorescence technique for on-line monitoring of state of hydrogen-producing microorganisms” (priority 2002, dated 2007):

Tests used:
C. reinhardtii cells = assay: Inhibitor (KCN, SHAM) effect on rates of dark respiration during sulfur deprivation, Clark electrode; format: cell-based, Chlamydomonas reinhardtii; conditions: SHAM 4 mM, 5 min, 17% O2
Procedure: To determine the precise moment of H2-photoproduction onset, we measured the percentage of H2 contained in the gas phase (˜7 ml) on the top of the vessel immediately after anaerobiosis by gas chromatography. The dissolved O2 and redox potential of the medium were also measured. Chlorophyll concentrations were then obtained spectrophotometrically in 95% ethanol cell extracts. The capacity for respiratory O2 consumption was measured with a Clark electrode at 25° C. under aerobic conditions (17% or 170 μM O2) after removing the samples from the culture vessel and equilibrating them with air for 5 minutes.
The PQ pool is further oxidized by dissolved O2 through the action of PQ-oxidase. In the mitochondria, NADH and FADH2 generated by the Krebs Cycle serve as the source of electrons for a membrane-bound electron transport chain with O2 as the final electron acceptor. The cytochrome oxidase transduces the production of 3 ATP molecules per pair of electrons transported. […]. In both cases, O2 is the terminal electron acceptor. The mitochondrial cytochrome oxidase in C reinhardtii is inhibited by KCN, carbon monoxide, and sodium azide, while the alternative oxidase is specifically affected by salicylic hydroxamic acid (SHAM). The putative chloroplast PQ oxidase, on the other hand, is not inhibited by SHAM and only slightly affected by KCN. By measuring the influence of two inhibitors, KCN and SHAM, on the rates of dark respiration, we tried to estimate the relative contributions of each of the three oxidases at different times after sulfur deprivation. The actual contributions of the three oxidases to the scavenging O2 in situ depend on many factors such as their relative KM's for O2 and the rate of diffusion of O2 from the chloroplast to the mitochondria. Thus, the inhibitor studies that follow may not directly reflect the actual situation in the photobioreactor, but they do indicate that changes in the relative contribution of the three oxidases occur over the course of sulfure deprivation.
Contributions to the mitochondrial cytochrome oxidase [CO], mitochondrial alternative oxidase [AO], and chlororespiration [CR] to the total respiration rate of C. reinhardtii cells are also shown during sulfur-deprivation. […].

[1] = system: sulfur-depleted C. reinhardtii cells; assay: Effect of DCMU on the rate of H2 photoproduction by sulfur-depleted algal cultures; format: cell-based, Chlamydomonas reinhardtii; conditions: 10 μM DCMU added to culture after H2 gas production has started
Procedure: […]. DCMU was added to treated cells at the arrow. Time zero in this case represents the time after H2 photoproduction starts.
Chlamydomonas reinhardtii strain Dangeard C137+ was grown in Tris-acetate-phosphate (TAP) medium (pH, 7.0) under continuous cool-white fluorescent light. Late-log cells were pelleted three times by centrifiguation and re-suspended in the same medium, from which inorganic sulfure (TAP-S) was omitted. The cells were incubated under continuous fluorescent illumation (200-250 μE m^−2 s^−1 PAR) in cylindrical reactor vessels (600 ml) with a rotating glass rod and Teflon impellers for mixing. A magnetic bar was attached at the bottom of the rod to couple it to an external stirring motor, and the rate of mixing was 60-80 rpm. The vessels were sealed using a silicon stopper with an outlet tube inserted through it for gas collection. The gas produced by the cells was collected in an inverted graduated glass cylinder by water displacement.
The direct involvement of PSII-catalyzed water oxidation activity by sulfur-deprived cells was further investigated using PAM fluorescence techniques.

Compound	% SHAM inhibition (% AO) of respiration (C. reinhardtii cells; During H2 production)	% SHAM inhibition (% AO) of respiration (C. reinhardtii cells; End of H2 production)	% SHAM inhibition (% AO) of respiration (C. reinhardtii cells; Start of H2 production phase)	% SHAM inhibition (% AO) of respiration (C. reinhardtii cells; Start of anaerobic phase)	% SHAM inhibition (% AO) of respiration (C. reinhardtii cells; Start of sulfur depletion)	decrease of the rate of H2 gas production [1]
O=C(NO)c1ccccc1O [SHAM, salicylic hydroxamic acid]	38%	100%	13%	0%	25%	–
DCMU	–	–	–	–	–	80%
